The text below walks through data of patent publication US8686043B2, “Heterocyclic sulfonamides, uses and pharmaceutical compositions thereof” (Pfizer Inc., priority 2009, dated 2014).

For the assay, the system named is AMPA receptors. The experiment in a line: AMPA ES Cell FLIPR Screen (AMPA Potentiator Assay). The assay is classed as cell-based, murine. Conditions: for EC50: ES cell-derived neurons, FLIPR (Fluo-4), 32 μM AMPA challenge, values marked * are the geometric mean of 2-5 EC50 determinations. The source says: Growth and Maintenance of ES Cells
Murine ES cell line E14, with a targeted mutation in the Sox1 gene and a neuroectodermal marker that offers G418 resistance when the Sox1 gene is expressed (Stem Cell Sciences, West Mains Road, Edinburgh, Scotland EH9 3JQ) may be used in all experiments. ES cells may be maintained undifferentiated as previously described (Methods For The Isolation And Maintenance Of Murine Embryonic Stem Cells; Roach-M-L, McNeish-J-D., Methods in Molecular Biology, 185, 1-16 (2002)). Briefly, ES cells may be grown in stem cell culture media comprising a base medium of Knockout™ D-MEM (Invitrogen 5791 Van Allen Way, Carlsbad, Calif. USA 92008), supplemented with 15% ES qualified Fetal Bovine Serum (FBS) (Invitrogen), 0.2 mM L-Glutamine (Invitrogen), 0.1 mM MEM non-essential amino acids (Invitrogen), 30 μg/ml Gentamicin […] (Invitrogen), 1000 U/ml ESGRO™ (CHEMICON International, Inc., 28820 Single Oak Drive, Temecula, Calif. 92590) and 0.1 mM 2-mercaptoethanol (Sigma, 3050 Spruce St., St. Louis, Mo. 63103). ES cells may then be plated on gelatin-coated dishes (BD Biosciences, 2350 Qume Drive, San Jose, Calif. 95131), wherein the media is changed daily and the cells dissociated with 0.05% Trypsin EDTA (Invitrogen) every other day.
Neural In Vitro Differentiation of ES Cells
Embryoid Body Formation: Prior to embryoid body (EB) formation the ES cells may be weaned from FBS onto Knockout Serum Replacement™ (KSR) (Invitrogen). To form EBs, ES cells may be dissociated into a single cell suspension, then 3×10^6 cells plated in bacteriology dishes (Nunc 4014) and grown as a suspension culture in NeuroEB-I medium that consisted of Knockout™ D-MEM (Invitrogen), supplemented with 10% KSR (Invitrogen), 0.2 mM L-Glutamine (Invitrogen), 0.1 mM MEM non-essential amino acids (Invitrogen), 30 μg/ml Gentamicin (Invitrogen), 1000 U/ml ESGRO™ (CHEMICON International, Inc.), 0.1 mM 2-mercaptoethanol (Sigma) and 150 ng/ml Transferrin (Invitrogen). The plates may then be put on a Stovall Belly Button™ shaker in an atmospheric oxygen incubator. The media may be changed on day 2 of EB formation with NeuroEB-I and on day 4 with NeuroEB-II (NeuroEB-I plus 1 μg/ml mNoggin (R&D Systems, 614 McKinley Place N.E. Minneapolis, Minn. 55413)
Neuronal Precursor Selection and Expansion: On day 5 of EB formation, EBs may be dissociated with 0.05% Trypsin EDTA, and 4×10^6 cells/100 mm dish may then be plated on Laminin coated tissue culture dishes in NeuroEB-II-G418 medium that consisted of a base medium of a 1:1 mixture of D-MEM/F12 supplemented with N2 supplements and NeuroBasal Medium supplemented with B27(I ASSUME THIS IS THE VITAMIN) supplement and 0.1 mM L-Glutamine (all from Invitrogen). The base medium may then be supplemented with 10 ng/ml bFGF (Invitrogen), 1 μg/ml mNoggin, 500 ng/ml SHH-N (IS THIS SONIC HEDGEHOG FROM ProSpecBio Rehovot Science Park, P.O. BOX 398, Rehovot 76103, Israel), 100 ng/ml FGF-8b (R&D Systems), 1 μg/ml Laminin and 200 μg/ml G418 (Invitrogen) for selection of neuronal precursors expressing Sox-1. The plates may then be put in an incubator containing 2% oxygen and maintained in these conditions. During the 6-day selection period, the NeuroEB-II ([…]) media should be changed daily. On day 6, the surviving neuronal precursor foci may then be dissociated with 0.05% Trypsin EDTA and the cells plated at a density of 1.5×10^6 cells/100 mm Laminin coated dish in Neuroll ([…])-G418 medium. The cells may then be dissociated every other day for expansion, and prepared for cryopreservation at passage 3 or 4. The cryopreservation medium typically contains 50% KSR, 10% dimethyl sulfoxide (DMSO) (Sigma) and 40% Neurol([…])-G418 medium. Neuronal precursors may be cryopreserved at a concentration of 4×10^6 cells/ml and 1 ml/cryovial in a controlled rate freezer overnight then transferred to an ultra-low freezer or liquid nitrogen for long-term storage. […]

The structures appear in SMILES notation. Where only a bound is given, the exact number is not on record here.

`CC(C)S(=O)(=O)N[C@H]1COC[C@H]1Oc1ccc(-c2ccccc2C#N)cc1` [Example 3, N-{(3S,4S)-4-[(2′-cyanobiphenyl-4-yl)oxy]tetrahydrofuran-3-yl}propane-2-sulfonamide]: the EC50 came to 21.7 nM.

Consider `CC(C)S(=O)(=O)N[C@H]1COC[C@H]1Oc1ccc(-c2ccc(C#N)s2)cc1` [Example 4, N-{(3S,4S)-4-[4-(5-cyano-2-thienyl)phenoxy]tetrahydrofuran-3-yl}propane-2-sulfonamide], for which the EC50 amounted to 1790 nM.

As to `CC(C)S(=O)(=O)N[C@H]1CCC[C@H]1Oc1ccc(-c2ccccc2C#N)cc1` [Example 5, N-{(1S,2R)-2-[(2′-cyanobiphenyl-4-yl)oxy]cyclopentyl}propane-2-sulfonamide], the EC50 amounted to 535 nM. Also, under “title compound versus its enantiomer prepared from the (1R,2S) bromide”, the “potency compared with its enantiomer” value is listed as “significantly more potent than its enantiomer”.

On to `CC(C)S(=O)(=O)N[C@H]1CCC[C@H]1Oc1ccc(-c2ccc(C#N)s2)cc1` [Example 6, N-{(1S,2R)-2-[4-(5-cyano-2-thienyl)phenoxy]cyclopentyl}propane-2-sulfonamide], for which the EC50 was determined as 1540 nM.

In the case of `CC(C)S(=O)(=O)N[C@H]1CCCC[C@H]1Oc1ccc(-c2ccccc2C#N)cc1` [Example 7, N-{(1S,2R)-2-[(2′-cyanobiphenyl-4-yl)oxy]cyclohexyl}propane-2-sulfonamide], the EC50 was found to be 157 nM. Further, under “title compound versus its enantiomer”, the “biological activity improved over that of its enantiomer” value was over 150 times.

With `CC(C)S(=O)(=O)N[C@H]1COC[C@H]1Oc1ccc(-c2ccc(O)cc2)cc1` [Example 18, N-{(3S,4S)-4-[(4′-hydroxybiphenyl-4-yl)oxy]tetra hydrofuran-3-yl}propane-2-sulfonamide], the EC50 turned out to be 1180 nM.

Turning to `CCOc1cc(F)ccc1-c1ccc(O[C@@H]2COC[C@@H]2NS(=O)(=O)C(C)C)cc1` [Example 19, N-{(3S,4S)-4-[(2′-ethoxy-4′-fluorobiphenyl-4-yl)oxy]tetra hydrofuran-3-yl}propane-2-sulfonamide], the EC50 stood at 248 nM.

Take `Cc1cc(F)ccc1-c1ccc(O[C@@H]2COC[C@@H]2NS(=O)(=O)C(C)C)cc1` [Example 20, N-{(3S,4S)-4-[(4′-fluoro-2′-methylbiphenyl-4-yl)oxy]tetra hydrofuran-3-yl}propane-2-sulfonamide]: the 50% effective concentration (EC50) was found to be 729 nM.

In the case of `CC(C)S(=O)(=O)N[C@H]1COC[C@H]1Oc1ccc(-c2ccc(F)cc2F)cc1` [Example 21, N-{(3S,4S)-4-[(2′,4′-difluorobiphenyl-4-yl)oxy]tetra hydrofuran-3-yl}propane-2-sulfonamide], the EC50 amounted to 239 nM.

Regarding `CC(C)S(=O)(=O)N[C@H]1COC[C@H]1Oc1ccc(-c2cncnc2)cc1` [Example 22, N-[(3S,4S)-4-(4-pyrimidin-5-ylphenoxy)tetrahydrofuran-3-yl]propane-2-sulfonamide], the EC50 worked out at 861 nM.

Take `CCOc1ccccc1-c1ccc(O[C@@H]2CCC[C@@H]2NS(=O)(=O)C(C)C)cc1` [Example 25, N-{(1S,2R)-2-[(2′-ethoxybiphenyl-4-yl)oxy]cyclopentyl} propane-2-sulfonamide]: the EC50 turned out to be 2960 nM.

In the case of `CC(C)S(=O)(=O)N[C@H]1CCC[C@H]1Oc1ccc(-c2ccccc2)cc1` [Example 26, N-[(1S,2R)-2-(biphenyl-4-yloxy)cyclopentyl] propane-2-sulfonamide], the EC50 amounted to 1120 nM.

For the compound `CC(C)S(=O)(=O)N[C@H]1CCC[C@H]1Oc1ccc(N2CCCC2)cc1` [Example 27, N-[(1S,2R)-2-(4-pyrrolidin-1-ylphenoxy)cyclopentyl] propane-2-sulfonamide], the EC50 came to 857 nM.

In the case of `CC(C)S(=O)(=O)N[C@H]1CCC[C@H]1Oc1ccc(-c2ccc(C(=O)O)cc2C#N)cc1` [Example 28, 2-cyano-4′-({(1R,2S)-2-[(isopropylsulfonyl)amino]cyclopentyl}oxy) biphenyl-4-carboxylic acid], the EC50 came out at 651 nM.

As to `CC(C)S(=O)(=O)N[C@H]1CCC[C@H]1Oc1ccc(-c2ccccc2)c(F)c1` [Example 29, N-{(1S,2R)-2-[(2-fluorobiphenyl-4-yl)oxy]cyclopentyl} propane-2-sulfonamide], the EC50 was 521 nM.

Consider `CC(C)S(=O)(=O)N[C@H]1CCC[C@H]1Oc1ccc(-c2ccc(F)cc2C#N)c(F)c1` [Example 30, N-{(1S,2R)-2-[(2′-cyano-2,4′-difluorobiphenyl-4-yl)oxy]cyclopentyl}propane-2-sulfonamide], for which the EC50 is 349 nM.

Consider `CCOc1ccccc1-c1ccc(O[C@@H]2CCC[C@@H]2NS(=O)(=O)C(C)C)cc1F` [Example 31, N-{(1S,2R)-2-[(2′-ethoxy-2-fluorobiphenyl-4-yl)oxy]cyclopentyl} propane-2-sulfonamide], for which the EC50 stood at 327 nM.

In the case of `CC(C)S(=O)(=O)N[C@H]1CCC[C@H]1Oc1ccc(-c2ccc(C#N)s2)c(F)c1` [Example 32, N-{(1S,2R)-2-[4-(5-cyano-2-thienyl)-3-fluorophenoxy]cyclopentyl} propane-2-sulfonamide], the EC50 is 1400 nM.

For the compound `CC(C)S(=O)(=O)N[C@H]1CCC[C@H]1Oc1ccc(-c2cccc(C(=O)NC3CC3)c2)c(F)c1` [Example 33, N-cyclopropyl-2′-fluoro-4′-({(1R,2S)-2-[(isopropylsulfonyl)amino]cyclopentyl}oxy) biphenyl-3-carboxamide], the EC50 is 623 nM.

As for `CC(C)S(=O)(=O)N[C@H]1CCC[C@H]1Oc1ccc(-c2ccc(CCNS(C)(=O)=O)cc2)c(F)c1` [Example 34, N-{(1S,2R)-2-[(2-fluoro-4′-{2-[(methylsulfonyl)amino]ethyl}biphenyl-4-yl)oxy]cyclopentyl} propane-2-sulfonamide], the concentration giving a half-maximal response (EC50) came out at 3220 nM.

As for `CC(C)S(=O)(=O)N[C@H]1CCCC[C@H]1Oc1ccc(-c2ccccc2C#N)c(F)c1` [Example 35, N-{(1S,2R)-2-[(2′-cyano-2-fluorobiphenyl-4-yl)oxy]cyclohexyl} propane-2-sulfonamide], the EC50 amounted to 525 nM.

For `CC(C)S(=O)(=O)N[C@H]1CCCC[C@H]1Oc1ccc(-c2ccc(F)cc2C#N)c(F)c1` [Example 36, N-{(1S,2R)-2-[(2′-cyano-2,4′-difluorobiphenyl-4-yl)oxy]cyclohexyl} propane-2-sulfonamide], the EC50 stood at 1610 nM.

As for `CC(C)S(=O)(=O)N[C@H]1CCCC[C@H]1Oc1ccc(-c2ccc(C#N)s2)c(F)c1` [Example 37, N-{(1S,2R)-2-[4-(5-cyano-2-thienyl)-3-fluorophenoxy]cyclohexyl} propane-2-sulfonamide], the EC50 worked out at 1720 nM.

As to `CC(C)S(=O)(=O)N[C@H]1CCCC[C@H]1Oc1ccc(N2CCCC2)cc1` [Example 38, N-[(1S,2R)-2-(4-pyrrolidin-1-ylphenoxy)cyclohexyl] propane-2-sulfonamide], the EC50 turned out to be 327 nM.

On to `CCOc1ccccc1-c1ccc(O[C@@H]2CCCC[C@@H]2NS(=O)(=O)C(C)C)cc1` [Example 39, N-{(1S,2R)-2-[(2′-ethoxybiphenyl-4-yl)oxy]cyclohexyl} propane-2-sulfonamide], for which the EC50 amounted to 1420 nM.

Consider `CC(C)S(=O)(=O)N[C@H]1CCCC[C@H]1Oc1ccc(-c2ccccc2OCC(F)(F)F)nc1` [Example 40, N-[(1S,2R)-2-({6-[2-(2,2,2-trifluoroethoxy)phenyl]pyridin-3-yl}oxy)cyclohexyl] propane-2-sulfonamide], for which the EC50 is 148 nM.
